Biological target: kappa opioid receptor (OPRK1) (Homo sapiens (Human), UniProt P41145)
Assay: OPRK1 antagonist assay (b-arrestin-2-TEV / b-lactamase reporter cell line, EC80 U-50488 challenge)
Format: cell-based
Conditions: read-out: IC50 nM (% inhib if other than 50%); antagonist mode vs EC80 U-50488; NA = not active at concentrations up to 10 μM

Chain of kappa opioid receptor (OPRK1) (P41145 whole entry): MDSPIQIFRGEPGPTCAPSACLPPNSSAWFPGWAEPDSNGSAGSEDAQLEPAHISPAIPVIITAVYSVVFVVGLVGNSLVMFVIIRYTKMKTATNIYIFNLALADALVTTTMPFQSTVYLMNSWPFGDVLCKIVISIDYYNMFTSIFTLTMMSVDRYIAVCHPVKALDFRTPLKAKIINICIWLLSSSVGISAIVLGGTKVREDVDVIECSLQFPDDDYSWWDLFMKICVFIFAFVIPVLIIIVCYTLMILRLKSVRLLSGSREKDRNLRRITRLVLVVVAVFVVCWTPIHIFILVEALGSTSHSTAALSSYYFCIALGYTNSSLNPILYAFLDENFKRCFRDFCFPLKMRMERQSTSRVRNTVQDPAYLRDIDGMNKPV

Cc1ccc2cc(-c3nc(C)no3)c(N3CCC(NC4CCCCC4)C(CO)C3)nc2c1 (stereo not shown) [compound 229]
IC50: 5 nM

Cc1noc(-c2cc3ccccc3nc2N2CCC(NC3CCCCC3O)CC2)n1 (stereo not shown) [compound 230]
IC50: 9 nM

Cc1noc(-c2cc3ccccc3nc2N2CCC(NC3CCOCC3)CC2)n1 [compound 232]
IC50: 8 nM

Cc1noc(-c2cc3ccccc3nc2N2CC(NC3CCCCC3)C2)n1 [compound 234]
IC50: 596 nM

Cc1noc(-c2cc3ccccc3nc2N2CCC(NC3CCCOC3)CC2)n1 (stereo not shown) [compound 235]
IC50: 4 nM

Cc1noc(-c2cc3ccccc3nc2N2CCC(NC3CCOC3)CC2)n1 (stereo not shown) [compound 236]
IC50: 20 nM

CCC(CC)NC1CCN(c2nc3ccccc3cc2-c2nc(C)no2)CC1 [compound 237]
IC50: 8 nM

Cc1noc(-c2cc3cc(Cl)ccc3nc2N2CC[C@@H](NC3CCCCC3)[C@H](O)C2)n1 [compound 238]
IC50: 38 nM

Cc1noc(-c2cc3cc(Cl)ccc3nc2N2CCC(NC3CCCCC3)C(CO)C2)n1 (stereo not shown) [compound 239]
IC50: 16 nM

COC1CN(c2nc3ccc(Cl)cc3cc2-c2nc(C)no2)CCC1NC1CCCCC1 (stereo not shown) [compound 240]
IC50: 14 nM

Cc1noc(-c2cc3cc(F)ccc3nc2N2CC[C@@H](NC3CCCCC3)[C@H](O)C2)n1 [compound 241]
IC50: 59 nM

COC1CN(c2nc3ccc(F)cc3cc2-c2nc(C)no2)CCC1NC1CCCCC1 (stereo not shown) [compound 242]
IC50: 26 nM

Cc1noc(-c2cc3cc(F)ccc3nc2N2CCC(NC3CCCCC3)C(CO)C2)n1 (stereo not shown) [compound 243]
IC50: 22 nM

Cc1cnc(N2CC[C@@H](NC3CCCCC3)[C@H](O)C2)c(-c2ncccn2)c1 [compound 244]
IC50: 566 nM

Cc1cnc(N2CCC(NC3CCCCC3)C(CO)C2)c(-c2ncccn2)c1 (stereo not shown) [compound 245]
IC50: 79 nM

Cc1ccc2nc(N3CCC(NC4CCC(O)CC4)CC3)c(-c3nc(C)no3)cc2c1 (stereo not shown) [compound 246]
IC50: 51 nM

Cc1ccc2nc(N3CCC(NC4CCCOC4)CC3)c(-c3nc(C)no3)cc2c1 (stereo not shown) [compound 247]
IC50: 4 nM

COC1CN(c2nc3ccc(C)cc3cc2-c2nc(C)no2)CCC1NC1CCCCC1F (stereo not shown) [compound 249]
IC50: 9 nM

Cc1ccc2nc(N3CCC(NC4CCCCC4F)CC3)c(-c3nc(C)no3)cc2c1 (stereo not shown) [compound 250]
IC50: 8 nM

Cc1noc(-c2cc3c(F)cccc3nc2N2CC[C@@H](NC3CCCCC3)[C@H](O)C2)n1 [compound 251]
IC50: 11 nM

COC1CN(c2nc3cccc(F)c3cc2-c2nc(C)no2)CCC1NC1CCCCC1 (stereo not shown) [compound 252]
IC50: 12 nM

Cc1noc(-c2cc3c(F)cccc3nc2N2CCC(NC3CCCCC3)C(CO)C2)n1 (stereo not shown) [compound 253]
IC50: 10 nM

Cc1ccc2nc(N3CCC(NC4CCOC4)CC3)c(-c3nc(C)no3)cc2c1 (stereo not shown) [compound 254]
IC50: 8 nM

Cc1ccc2nc(N3CCC(NC4CCCC(O)C4)CC3)c(-c3nc(C)no3)cc2c1 (stereo not shown) [compound 255]
IC50: 10 nM

Cc1ccc2cc(-c3nc(C)no3)c(N3CCC(NC4CCCCC4O)CC3)nc2c1 (stereo not shown) [compound 256]
IC50: 631 nM

Cc1ccc2cc(-c3nc(C)no3)c(N3CCC(NC4CCOCC4)CC3)nc2c1 [compound 257]
IC50: 930 nM

COC1CN(c2nc3ccccc3cc2C2=NCC(C)O2)CCC1NC1CCCCC1 (stereo not shown) [compound 258]
IC50: 7160 nM

COC1CN(c2nc3ccccc3cc2C2=NC(C)CO2)CCC1NC1CCCCC1 (stereo not shown) [compound 259]
IC50: 372 nM

Cc1ccc2nc(N3CCC(NC4CCCCCCC4)CC3)c(-c3nc(C)no3)cc2c1 [compound 260]
IC50: 261 nM

Cc1ccc2nc(N3CCC(NCC4CCCCC4)CC3)c(-c3nc(C)no3)cc2c1 [compound 261]
IC50: 1470 nM

Cc1ccc2nc(N3CCC(NCC4CCCO4)CC3)c(-c3nc(C)no3)cc2c1 (stereo not shown) [compound 262]
IC50: 60 nM

COC1CN(c2nc3ccccc3cc2-c2ncccn2)CCC1NC1CCCCC1 (stereo not shown) [compound 263]
IC50: 1770 nM

OCC1CN(c2nc3ccccc3cc2-c2ncccn2)CCC1NC1CCCCC1 (stereo not shown) [compound 264]
IC50: 56 nM

Cc1ccc2nc(N3CCC(NC4CC5CCC4C5)CC3)c(-c3nc(C)no3)cc2c1 (stereo not shown) [compound 265]
IC50: 49 nM

Cc1ccc2nc(N3CCC(N4CCCCC4)CC3)c(-c3nc(C)no3)cc2c1 [compound 266]
IC50: 1740 nM

Cc1ccc2nc(N3CCC(N(C)C4CCOCC4)CC3)c(-c3nc(C)no3)cc2c1 [compound 267]
IC50: 180 nM

CCc1ccc2nc(N3CCC(NC4CCCCC4)C(OC)C3)c(-c3nc(C)no3)cc2c1 (stereo not shown) [compound 268]
IC50: 37 nM

CCc1ccc2nc(N3CCC(NC4CCCCC4)C(CO)C3)c(-c3nc(C)no3)cc2c1 (stereo not shown) [compound 269]
IC50: 30 nM

Cc1ccc2nc(N3CCC(NC4COC4)CC3)c(-c3nc(C)no3)cc2c1 [compound 270]
IC50: 4470 nM

Cc1ccc2nc(N3CCC(NC4(C)CCOCC4)CC3)c(-c3nc(C)no3)cc2c1 [compound 271]
IC50: 419 nM

Cc1cc(-c2nc(C)no2)c(N2CCC(NC3CCOCC3)CC2)nn1 [compound 272]
IC50: 8700 nM

Cc1ccc2nc(N3CCC(NC4CC(C)OC(C)C4)CC3)c(-c3nc(C)no3)cc2c1 (stereo not shown) [compound 274]
IC50: 50 nM

Cc1noc(-c2cc3cccc(C)c3nc2N2CCC(NC3CCOCC3)CC2)n1 [compound 275]
IC50: 98 nM

COC1CN(c2nc3c(C)cccc3cc2-c2nc(C)no2)CCC1NC1CCCCC1 (stereo not shown) [compound 276]
IC50: 18 nM

Cc1noc(-c2cc3cccc(C)c3nc2N2CCC(NC3CCCCC3)C(CO)C2)n1 (stereo not shown) [compound 277]
IC50: 9 nM

CNC(=O)c1cc2cc(C)ccc2nc1N1CCC(NC2CCCCC2)C(OC)C1 (stereo not shown) [compound 278]
IC50: 4720 nM

COC1CN(c2nc3ccc(C)cc3cc2C(=O)N(C)C)CCC1NC1CCCCC1 (stereo not shown) [compound 279]
IC50: 96 nM

Cc1ccc2nc(N3CCC(NC4CCCCC4)C(CO)C3)c(C(=O)N(C)C)cc2c1 (stereo not shown) [compound 280]
IC50: 99 nM

CCOC(=O)c1cc2cc(C)ccc2nc1N1CCC(NC2CCCCC2)C(OC)C1 (stereo not shown) [compound 281]
IC50: 30 nM

COC1CN(c2nc3ccc(C)cc3cc2C(=O)OC(C)C)CCC1NC1CCCCC1 (stereo not shown) [compound 282]
IC50: 38 nM

CCc1noc(-c2cc3cc(C)ccc3nc2N2CCC(NC3CCCCC3)C(OC)C2)n1 (stereo not shown) [compound 283]
IC50: 4 nM

CCc1noc(-c2cc3cc(C)ccc3nc2N2CCC(NC3CCCCC3)C(CO)C2)n1 (stereo not shown) [compound 284]
IC50: 20 nM

c1cnc(-c2cc3ccccc3nc2N2CCC(NC3CCOCC3)CC2)nc1 [compound 286]
IC50: 298 nM

CCOC(=O)c1cc2cc(C)ccc2nc1N1CCC(NC2CCCCC2)C(CO)C1 (stereo not shown) [compound 288]
IC50: 15 nM

CCOC(=O)c1cc2cc(C)ccc2nc1N1CCC(NC2CCOCC2)CC1 [compound 289]
IC50: 184 nM

CCc1noc(-c2cc3cc(C)ccc3nc2N2CCC(NC3CCOCC3)CC2)n1 [compound 290]
IC50: 47 nM

Cc1ccc2nc(N3CCC(NC4CCCCC4)C(CO)C3)c(C(=O)OC(C)C)cc2c1 (stereo not shown) [compound 291]
IC50: 18 nM

COC1CN(c2nc3ccccc3cc2-c2nc(C)no2)CCC1NC1CCCCC1 (stereo not shown) [compound 292]
IC50: 33 nM

COC1CN(c2nc3ccc(C)cc3cc2-c2nc(C)no2)CCC1NC1CCCCC1 (stereo not shown) [compound 293]
IC50: 20 nM

CO[C@H]1CN(c2nc3ccc(C)cc3cc2-c2nc(C)no2)CC[C@H]1NC1CCCCC1 [compound 294]
IC50: 0.7 nM

CO[C@H]1CN(c2nc3ccccc3cc2-c2nc(C)no2)CC[C@H]1NC1CCCCC1 [compound 295]
IC50: 2 nM

Reference: US20250346584A1, “NOVEL KAPPA OPIOID LIGANDS” (The Scripps Research Institute, priority 2012, published 2025)
